Reference: patent US20220401592A1, “LOW MOLECULAR WEIGHT AND POLYAMIDOAMINE (PAMAM) DENDRIMER BASED PSMA-SPECIFIC DUAL CONTRAST AGENTS FOR OPTICAL AND PHOTOACOUSTIC IMAGING AND THERANOSTIC AGENTS FOR TREATING PROSTATE CANCER” (priority 2021, published 2022)

Legend:
[1] = tested on: PSMA+ PC3 PIP and PSMA-PC3 flu xenografts; test: NIR optical imaging, in vivo and ex vivo, of tumor-bearing mice; design: species or system NOD-SCID mice; conditions: for preferential accumulation in PSMA+ PC3 PIP tumors vs PSMA-PC3 flu tumors (optical imaging): whole-body NIR imaging, 800 nm channel
PSMA+ PC3 PIP tumors = test: In vivo photoacoustic imaging, PSMA+ PC3 PIP tumors; design: species or system NOD-SCID mice
PSMA-PC3 flu tumors = test: In vivo photoacoustic imaging, PSMA-PC3 flu tumors; design: species or system NOD-SCID mice
From the text: To evaluate potential application of the conjugates in photoacoustic imaging, mice used in optical imaging (described in optical imaging section) were imaged using the Nd:YAG OPO laser and Verasonics Vantage 256 ultrasound research platform. […] Under the assumption that different tissue types yield linearly independent PA signal, the two-dimensional (axial and lateral) PA images of the exogeneous imaging agent (conjugate VI) were decomposed from the acquired three-dimensional photoacoustic volume (axial, lateral, and spectral) using non-negative least squares models. The same speed of sound was considered in the beam formation of US and PA imaging. Thus, the two imaging modalities were co-registered by nature. On top of that, image fusion of the two was achieved by using Daubechies 2 wavelet in wavelet transform.
To record background for PA signal mice were imaged before administration of […] and 5, 24, 48, and 72 h after injection (ai). The average PA intensities within the region-of-interest (ROI) of PSMA^+ PC3 normalized with respect to the pre-administration baseline PIP were 25.1±11.0, 30.2±21.1, and 21.8±7.4 at 24, 48 and 72 h ai, respectively. The average PA image intensities within the ROI of PSMA-PC3 flu were 4.2±4.3, 5.9±2.5, 3.8±1.3 (a.u.) at the same time points. […] The normalized PA image intensities of PSMA^+ PC3 PIP tumors were 1.1±0.9, 3.8±4.1, and 1.6±1.4 (a.u.) at 24, 48 and 72 h ai, respectively, and of PSMA-PC3 flu tumors were 2.0±0.9, 3.4±2.4, and 0.9±0.7 (a.u.), respectively.

[2] = PA tubing phantom experiment; conditions: for RPAmax, ratio of maximum PA intensity in NIR range (with respect to I at 770 nm): 700-900 nm in steps of 10 nm; for RPAmax, ratio of maximum PA intensity in NIR range (with respect to I at 770 nm) / RPA780, ratio of photoacoustic intensity at 780 nm (to conjugate I): same amount of Cy7.5 dye; for PB: abbreviation not defined in the footnote
Experimental: (§1) All conjugates were formulated into 600 μL sample containing 2.88-nmol Cy7.5 dye. Then, each sample was equally split into three for spectrophotometric, spectrofluorometric, and PA tests, respectively. To obtain the excitation wavelength for fluorescence evaluation as well as estimating the shape of PA spectra, optical absorbance of all conjugates was first tested on a UIV-Vis spectrophotometer. A range from 650 nm to 950 nm (slightly wider than the tunable stable wavelength range on a Nd:YAG OPO laser, i.e., 700 nm to 900 nm) in step of 1 nm was selected. […] Due to the emission limit on the spectrofluorometer (up to 850 nm), the excitation for spectrofluorometry was set at 715 nm, and the emission was set from 750 nm to 850 nm in step of 1 nm. […] Specifically, to avoid the interference of photobleaching wavelengths from 700 nm to 900 nm in step of 10 nm were tested in PA tubing phantom experiment.

[3] = Spectrofluorometric test (fluorescence quenching) of conjugates; conditions: excitation 715 nm, emission 750-850 nm; samples with the same amount of Cy7.5 dye; normalized to conjugate I
Experimental: as §1

PSMA [4] = molecular target: T1, PSMA (Homo sapiens, UniProt Q04609); test: In vitro binding assay of conjugates with PSMA+ PC3 PIP cells (vs PSMA- PC3 flu cells); design: expressed in transfected cells; host or cells: PSMA+ PC3 PIP (human prostate cancer PC3 subline); PSMA- PC3 flu as negative control; conditions: for Kd: PSMA+ PC3 PIP cells, fluorescence intensity vs concentration, read-out: Kd, dissociation constant
Target sequence in this assay (Q04609 whole entry): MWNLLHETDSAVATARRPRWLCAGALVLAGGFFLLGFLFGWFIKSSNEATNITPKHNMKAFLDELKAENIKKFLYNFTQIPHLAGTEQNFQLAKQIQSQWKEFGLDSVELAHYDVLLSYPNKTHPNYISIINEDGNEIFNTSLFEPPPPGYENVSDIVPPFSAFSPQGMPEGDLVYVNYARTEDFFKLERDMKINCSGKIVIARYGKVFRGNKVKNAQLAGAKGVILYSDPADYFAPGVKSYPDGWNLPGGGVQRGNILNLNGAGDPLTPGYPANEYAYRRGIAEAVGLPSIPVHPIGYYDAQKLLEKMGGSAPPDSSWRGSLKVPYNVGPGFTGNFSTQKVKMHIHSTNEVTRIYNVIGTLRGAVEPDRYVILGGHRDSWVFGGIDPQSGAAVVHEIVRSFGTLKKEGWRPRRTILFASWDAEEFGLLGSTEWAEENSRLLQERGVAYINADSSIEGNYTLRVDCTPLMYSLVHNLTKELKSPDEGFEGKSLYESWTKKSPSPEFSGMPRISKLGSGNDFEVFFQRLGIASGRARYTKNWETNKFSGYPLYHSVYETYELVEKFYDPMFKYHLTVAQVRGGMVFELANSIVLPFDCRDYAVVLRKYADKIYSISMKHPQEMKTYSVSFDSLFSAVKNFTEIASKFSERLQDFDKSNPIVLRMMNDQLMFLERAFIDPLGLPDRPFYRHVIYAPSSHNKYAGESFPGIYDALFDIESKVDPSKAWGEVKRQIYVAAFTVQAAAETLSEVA

[5] = Spectrophotometric test (UV-Vis optical absorbance) of conjugates
Experimental: as §1

PSMA [6] = molecular target: T1, PSMA; conditions: cited from earlier work
Target sequence in this assay (Q04609 whole entry, species assumed): as the sequence (Q04609 whole entry) above

Molecule | preferential accumulation in PSMA+ PC3 PIP tumors vs PSMA-PC3 flu tumors (optical imaging) [1] | average PA intensity within ROI of PSMA+ PC3 PIP, normalized to pre-injection baseline (PSMA+ PC3 PIP tumors; 24 h after injection) [a.u.] | average PA intensity within ROI of PSMA+ PC3 PIP, normalized to pre-injection baseline (PSMA+ PC3 PIP tumors; 48 h after injection) [a.u.] | average PA intensity within ROI of PSMA+ PC3 PIP, normalized to pre-injection baseline (PSMA+ PC3 PIP tumors; 72 h after injection) [a.u.] | average PA image intensity within ROI of PSMA-PC3 flu (PSMA-PC3 flu tumors; 24 h after injection) [a.u.] | average PA image intensity within ROI of PSMA-PC3 flu (PSMA-PC3 flu tumors; 48 h after injection) [a.u.] | average PA image intensity within ROI of PSMA-PC3 flu (PSMA-PC3 flu tumors; 72 h after injection) [a.u.] | RPAmax, ratio of maximum PA intensity in NIR range (with respect to I at 770 nm) [2] [%] | RPA780, ratio of photoacoustic intensity at 780 nm (to conjugate I) [2] [%] | QR (quenching rate) [3] [%] | Kd (PSMA [4]) [nM] | PB [2] [%/sec] | ratio of PA intensity to I in 790-900 nm range ([2]; maximum ratio, at 860 nm) [%] | absorbance relative to I below 750 nm [5] | affinity to PSMA (PSMA [6]) | ex vivo fluorescence intensity PSMA+ PC3 PIP/PSMA-PC3 flu ratio ([1]; dissected tissues 72 h after injection of 100 μg (3.72 nmol)) | uptake by PSMA+ PC3 PIP cells compared to PSMA-PC3 flu cells (PSMA [4]) | specific uptake by PSMA+ PC3 PIP in presence of an excess of ZJ-43 (PSMA [4]; excess of ZJ-43 (PSMA antagonist)) | internalization in PSMA+ PC3 PIP cells compared to PSMA-PC3 flu cells (PSMA [4]; microscopic evaluation)
G4(NH2)13(Cy7.5)6(Bdiol)45 [Conjugate VI] | did not show preferential uptake | 1.1±0.9 | 3.8±4.1 | 1.6±1.4 | 2.0±0.9 | 3.4±2.4 | 0.9±0.7 | 44.6 | 45.4 | 26.6 |  |  |  |  |  |  |  |  | 
CN1/C(=C/C=C2C=C(/C=C/C3=[N+](CCCCCC(=O)NCCCC[C@H](NC(=O)CCCCCCC(=O)NCCCC[C@H](NC(=O)N[C@@H](CCC(=O)O)C(=O)O)C(=O)O)C(=O)O)c4ccc5c(S(=O)(=O)O)cc(S(=O)(=O)O)cc5c4C3(C)C)CCC/2)C(C)(C)c2c1ccc1c(S(=O)(=O)[O-])cc(S(=O)(=O)O)cc21 [Conjugate I] | preferential accumulation | 21.6±16.8 | 12.7±5.2 | 10.0±4.8 | 1.9±1.4 | 19±0.9 | 2.0±1.1 |  |  |  | 780 |  |  |  |  |  |  |  | 
G4(Cy7.5)s(SA-KEU)12(Bdiol)52 [Conjugate V] |  |  |  |  |  |  |  | 111.1 | 97.5 | 1.3 | 78 | 0.057 | ≤ 1257.44 | up to 1.8 times |  |  |  |  | 
G4(NH2)(Cy7.5)4(SA-KEU)9(Bdiol)30 [Conjugate III] |  |  |  |  |  |  |  | 20.6 | 20.9 | 174.9 | 270 | 0.049 |  |  |  |  |  |  | 
NCCCCC(NC(=O)NC(CCC(=O)O)C(=O)O)C(=O)O (stereo not drawn) [KEU, Lys-Glu-urea] |  |  |  |  |  |  |  |  |  |  |  |  |  |  | picomolar |  |  |  | 
G4(Cy7.5)6(SA-KEU)9(Bdiol)53 [Conjugate IV] | highly specific accumulation | 25.1±11.0 | 30.2±21.1 | 21.8±7.4 | 4.2±4.3 | 5.9±2.5 | 3.8±1.3 | 48.1 | 49.0 | 4.4 | 410 | 0.037 |  |  |  | 6.2 | significantly higher uptake | inhibited | significantly higher internalization
G4(NH2)20(Cy7.5)2(SA-KEU)10(Bdiol)32 [Conjugate II] |  |  |  |  |  |  |  | 30.3 | 30.8 | 76.4 | 680 | 0.043 |  |  |  |  |  |  | 
